This note sets out measurements from EP3042903B1, “Substituted hetero-bicyclic compounds, compositions and medicinal applications thereof” (Impetis Biosciences Ltd., priority 2015, dated 2016).

Test [1] concerns the target T1, Recombinant Human Bruton's tyrosine kinase (Btk) (Homo sapiens, UniProt Q06187).
T1 construct: Full length human BTK (hBTK, Genbank#NM_000061.2) was cloned into pFastBac-HTB vector; 6XHis (N); made in house; host or cells: Sf9 cells (Bac-to-Bac baculovirus expression system)
Briefly: Recombinant Human Bruton's tyrosine kinase (Btk) inhibition assay (HTRF KinEASE-TK). The test is classed as biochemical. The note with it: 20 ng/ml rhBtk, 77 µM ATP (KM), 1 µM TK-Biotin Substrate, 90 minutes; read-out: IC50 (nM) in recombinant hBTK assay. As for the experimental part: Recombinant Human Bruton's tyrosine kinase (Btk) inhibition assay.
Full length human BTK (hBTK, Genbank#NM_000061.2) was cloned into pFastBac-HTB vector (Invitrogen, cat#10359-016). hBTK gene was expressed with N'-terminal 6XHis tag in Sf9 cells using Bac-to-Bac ^(R) Baculovirus expression system (Invitrogen, cat#10359-016) and the recombinant protein was purified by Ni-NTA method. The elution buffer for hBTK consisted of 50 mM Hepes pH 8.0, 300 mM NaCl, 10% glycerol, 1 mM dithiothreitol and 200 mM imidazole.
The inhibition assays were performed using the generic tyrosine kinase assay kit from Cis Bio (HTRF® KinEASE - TK™ # 62TK0PEB). The assay is based on the principle of fluorescence resonance energy transfer (FRET) between the Europium Cryptate labeled anti-phosphotyrosine antibody and streptavidin labeled fluorophore, XL-665. In an uninhibited kinase reaction the biotinylated peptide substrate (Tk-Biotin) gets phosphorylated at an intermediate tyrosine site which is captured by anti-phosphotyrosine antibody which eventually acts as a FRET donor. The streptavidin labeled XL-665 binds strongly to the Tk-Biotin substrate and act as a FRET acceptor. The resultant FRET signal is measured at 665 nm. A ratio of this specific fluorescence (665nm) to the background fluorescence (620nm), conferred by the free antibody, is directly proportional to the kinase activity.
The Btk inhibition assays were performed using 20 ng/ml of rhBtk in a final volume of 10µl reaction buffer containing 77 µM ATP and 1 µM TK-Biotin Substrate in 50 mM HEPES pH 7.0, 5mM MgCl2, 1mM DTT, 0.01% Tween 20 and 50nM SEB®; with a range of concentrations of the inhibitors. The kinase reaction was carried out at the KM of ATP (77 µM) as well as that of Tk-Biotin substrate (1 µM). After 90 minutes, the reaction was stopped by addition of SA-XL665 at a concentration of 62.5 nM in HTRF® detection buffer containing EDTA. Finally 5 µL of TK antibody-cryptate was added to the reaction and the plate was incubated for additional 60 minutes. The fluorescence was read using the FlexStation (Molecular Devices) with excitation at 340 nm and emissions at 620nm (for Cryptate) and 665nm (for FRET). A ratio of the 2 emissions was calculated for each well and expressed as follows: Specific signal = Ratio(Sample)−Ratio(Negative) [formula] Ratio = (665nm/620nm) × 10^4 [formula] Mean Ratio = ∑Ratio/3(triplicates) [formula]
For each data point, % inhibition is calculated based on uninhibited reaction which is considered as 100% activity over no enzyme or substrate controls. Dose response data is then fit using a four parameter logistic equation using GraphPad Prism 5 software to determine inhibition constant 50(IC50).

Test [2] concerns B cell activation as measured by CD69 expression in mouse splenocytes. Briefly: Inhibition of B cell activation as measured by CD69 expression in mouse splenocytes (flow cytometry). The test is classed as cell-based. The note with it: C57/BL6 splenocytes, 3 µg/mL goat anti-mouse IgM, 18-20 hours, CD69 +ve cells within CD19; read-out: IC50 (nM) in B cell activation assay in Mouse spleenocytes. The source says:
Inhibition of B cell activation as measured by CD69 expression in mouse splenocytes:
To test the effect of BTK inhibitors in suppressing B-cell receptor (BCR) mediated activation of B cells, we developed a flow cytometry based assay to analyze CD69 expression in B cell population among total splenocyte from the mouse. C57/BL6 mouse spleens were dissected out and splenocytes were isolated by mincing the tissue with a syringe plunger followed by RBC lysis (0.85% ammonium chloride, (Qualigens,Cat #21405) and several washes in PBS. Finally, cell were cultured in culture medium [RPMI medium (Sigma, Cat R6504) with 10% FBS (Gibco - Cat #10270).
Test compounds were diluted half log starting from 2 mM in 100% DMSO (Sigma, cat#D2650) (200X). 1x10^5 splenocytes were incubated with 1 µL of diluted test compounds in 200 µL culture medium in a U-bottom 96 well plate (Greiner) at 37°C with 5% CO2 for 30 minutes. Control wells received 1 µL of 100% DMSO without any compound. The cells were stimulated with 3 µg/mL goat anti-mouse IgM (Sigma, cat#M8644) and incubated for 18-20 hours. After the stimulation, cells were washed in cold PBS with 1% FBS and stained with 1:100 dilution of anti-CD69-PE (eBioscience, cat#12-0691-83) and anti-CD19-PE.Cy5 (eBioscience, cat#15-0193-83) for 1 hour on ice. Then the cells were washed 3 times with PBS with 1% FBS and analyzed by Guava Easycyte Mini flow cytometer system (Millipore). Flow cytometry data were analyzed using Weasel software (WEHI, Melbourne). B cells were gated using CD19 marker. Expression of CD69 was analyzed as percentage of CD69 +ve cells within CD19. Percent activity for each data point was calculated using following formula: [formula]
(§1) Percentage activity was fit using sigmoid dose response with variable slope logistic equation in GraphPad Prism 5 software to determine IC50.

Test [3] concerns B cell activation as measured by CD69 expression in Human whole blood. The experiment in a line: Inhibition of B cell activation as measured by CD69 expression in Human whole blood (flow cytometry). The test is classed as cell-based. The note with it: heparinized human whole blood, anti-IgD antibody 30 µg/mL, 4 hours, CD69 positive cells among CD20 B cells. The method, then: Inhibition of B cell activation as measured by CD69 expression in Human whole blood
To test the effect of BTK inhibitors in suppressing B-cell receptor (BCR) mediated activation of B cells, we developed a flow cytometry based assay to analyze CD69 expression in B cell population in human whole blood. Freshly collected heparinized human whole blood (60 µL/well) was dispensed in 96-well U bottom plate (Greiner), treated with the test compound at a concentrations ranging from 10 µM to 0.3 nM (half log dilutions). 0.5% DMSO (Sigma, cat#D2650) was used as vehicle control. The whole blood was incubated with compounds for 1 hour, followed by stimulation with anti-IgD antibody (Goat Anti-Human IgD Antibody - affinity purified, Bethyl laboratories, cat#A80-106A) at a final concentration of 30 µg/mL at 37°C and 5% CO2 for 4 hours. Subsequently, 45 µL blood was transferred to 1.5 ml microcentrifuge tubes and 1.2 µL of anti-CD20-PE.Cy5 (BD Biosciences, cat#561761)and 1.6 µL of anti-CD69-PE (eBioscience, cat#12-0691-83) antibody were added and mixed properly by gently tapping the tubes. Blood was stained for 20 minutes at room temperature (RT). After antibody incubation, 1 mL pre-warmed 1X Lyse/Fix solution (BD Biosciences, cat#558049) was added and cells were incubated at RT for 10 minutes. Then the tubes were centrifuged at 450xg for 5 minutes at RT and supernatant was removed. Pellet was disrupted by gentle tapping, cells were washed with 1 mL freshly prepared wash buffer and centrifuged at 450xg for 5 minutes at RT. Supernatant was removed completely before resuspending cells in 200 µl of wash buffer and proceeded for acquisition in Guava Easy Cyte Mini instrument. Acquisition was done with following laser settings: FSC Gain: X 16, FSC fine gain 100%, SSC: 893V, GRN: 663V, YLW: 649V, RED: 802V, Threshold Parameters Offset: FSC 0.73 V Threshold 300 units. The cells were diluted in such a way so that cell conc. should not exceed 500 cells/µL and at least 5000 cells were acquired. Viable lymphocytes were gated from the forward and side scatter profile of cells and B cells were sub-gated based on CD20-PE.Cy5 staining. Percent of CD69-PE positive cells were calculated among B lymphocyte sub-gate using Weasel software. Percent activity for each data point was calculated using following formula: [formula]
as §1

T1 sequence (Q06187 whole entry): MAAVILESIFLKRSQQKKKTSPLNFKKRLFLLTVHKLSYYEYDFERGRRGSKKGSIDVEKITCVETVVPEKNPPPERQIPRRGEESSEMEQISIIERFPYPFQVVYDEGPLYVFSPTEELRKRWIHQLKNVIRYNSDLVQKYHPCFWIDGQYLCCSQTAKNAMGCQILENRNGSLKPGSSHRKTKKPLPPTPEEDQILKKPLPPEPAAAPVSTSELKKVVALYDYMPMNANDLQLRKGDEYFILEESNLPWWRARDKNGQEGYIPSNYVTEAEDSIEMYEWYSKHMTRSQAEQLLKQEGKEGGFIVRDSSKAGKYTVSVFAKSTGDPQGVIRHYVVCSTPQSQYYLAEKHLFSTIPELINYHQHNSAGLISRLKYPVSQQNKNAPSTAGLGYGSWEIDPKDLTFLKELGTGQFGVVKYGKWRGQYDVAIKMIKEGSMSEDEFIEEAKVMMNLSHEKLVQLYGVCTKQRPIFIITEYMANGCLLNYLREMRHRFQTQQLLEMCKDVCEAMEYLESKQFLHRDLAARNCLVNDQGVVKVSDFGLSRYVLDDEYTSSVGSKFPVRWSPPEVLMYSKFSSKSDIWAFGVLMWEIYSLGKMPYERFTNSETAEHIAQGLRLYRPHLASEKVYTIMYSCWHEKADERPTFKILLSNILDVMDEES

In the case of `O=C1c2c(F)cc(C3CC3)cc2OCCN1c1cc(F)cc(-c2ccnc3[nH]c(C4=CCN(C5COC5)CC4)cc23)c1CO` [Example 8, 8-cyclopropyl-6-fluoro-4-[5-fluoro-2-(hydroxymethyl)-3-[2-[1-(oxetan-3-yl)-3,6-dihydro-2H-pyridin-4-yl]-1H-pyrrolo[2,3-b]pyridin-4-yl]phenyl]-2,3-dihydro-1,4-benzoxazepin-5-one], the IC50 amounted to 1.3 nM in test [1], 9 nM in test [2] and 124 nM in test [3].
As for `O=C1c2c(F)cc(C3CC3)cc2OCCN1c1cc(F)cc(-c2ccnc3[nH]c(-c4ccc(CN5CCN(CC(F)(F)F)CC5)cn4)cc23)c1CO` [Example 2], the half-inhibitory concentration (IC50) in test [1] was 1.9 nM; in test [2], 2.7 nM; in test [3], 55.9 nM.

A word on the IC50: it is the concentration that inhibits the measured activity by half.
